Measurements reported in article PMC6330093 (Bioconjugate chemistry, 2017).
Read-outs that look alike come from different tables or passages of the source.

Columns and labels:
[1] = variable temperature CD, 20 mM sodium phosphate buffer, pH 7
[2] = target: proteinase K (Parengyodontium album, UniProt P06873); test: HPLC-based proteolysis assay with proteinase K; type: in vitro ADME
Sequence of proteinase K (P06873 106-384, species assumed): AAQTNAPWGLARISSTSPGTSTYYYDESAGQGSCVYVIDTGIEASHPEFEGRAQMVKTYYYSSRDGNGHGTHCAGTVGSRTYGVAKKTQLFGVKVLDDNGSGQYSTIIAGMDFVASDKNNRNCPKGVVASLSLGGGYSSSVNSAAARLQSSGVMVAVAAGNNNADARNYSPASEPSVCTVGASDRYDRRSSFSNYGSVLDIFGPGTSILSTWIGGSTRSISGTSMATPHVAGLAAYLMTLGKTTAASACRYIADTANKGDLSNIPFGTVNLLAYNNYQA

Structure (SMILES)	Tm (melting temperature) ([1]; 50 μM protein) [°C]	Tm (melting temperature) ([1]; 100 μM protein) [°C]	k, apparent proteolysis rate constant [2] [s^−1 × 10^3]
CC[C@H](C)[C@H](NC(=O)[C@H](Cc1c[nH]cn1)NC(=O)[C@H](CC(N)=O)NC(=O)[C@H](Cc1ccccc1)NC(=O)[C@H](Cc1ccc(O)cc1)NC(=O)[C@H](CC(N)=O)NC(=O)[C@@H](NC(=O)[C@H](CCCNC(=N)N)NC(=O)CNC(=O)[C@H](CO)NC(=O)[C@H](CO)NC(=O)[C@H](CCCNC(=N)N)NC(=O)[C@H](CO)NC(=O)[C@H](CCSC)NC(=O)[C@H](CCCNC(=N)N)NC(=O)[C@H](CCCCN)NC(=O)[C@H](CCC(=O)O)NC(=O)[C@H](Cc1c[nH]c2ccccc12)NC(=O)CNC(=O)[C@@H]1CCCN1C(=O)[C@@H]1CCCN1C(=O)[C@H](CC(C)C)NC(=O)[C@@H](N)CCCCN)C(C)C)C(=O)N[C@H](C(=O)N[C@@H](CC(N)=O)C(=O)N[C@@H](C)C(=O)N[C@@H](CO)C(=O)N[C@@H](CCC(N)=O)C(=O)N[C@@H](Cc1ccccc1)C(=O)N[C@@H](CCC(=O)O)C(=O)N[C@@H](CCCNC(=N)N)C(=O)N1CCC[C@H]1C(=O)N[C@@H](CO)C(=O)NCC(=O)O)[C@@H](C)O [23N]	27.7 ±0.3	–	–
CC[C@H](C)[C@H](NC(=O)[C@H](Cc1c[nH]cn1)NC(=O)[C@H](CC(N)=O)NC(=O)[C@H](Cc1ccccc1)NC(=O)[C@H](Cc1ccc(O)cc1)NC(=O)[C@H](Cc1ccc(O)cc1)NC(=O)[C@@H](NC(=O)[C@H](CCCNC(=N)N)NC(=O)CNC(=O)[C@H](CO)NC(=O)[C@H](CC(N)=O)NC(=O)[C@H](CCCNC(=N)N)NC(=O)[C@H](CO)NC(=O)[C@H](CCSC)NC(=O)[C@H](CCCNC(=N)N)NC(=O)[C@H](CCCCN)NC(=O)[C@H](CCC(=O)O)NC(=O)[C@H](Cc1c[nH]c2ccccc12)NC(=O)CNC(=O)[C@@H]1CCCN1C(=O)[C@@H]1CCCN1C(=O)[C@H](CC(C)C)NC(=O)[C@@H](N)CCCCN)C(C)C)C(=O)N[C@H](C(=O)N[C@@H](CC(N)=O)C(=O)N[C@@H](C)C(=O)N[C@@H](CO)C(=O)N[C@@H](CCC(N)=O)C(=O)N[C@@H](Cc1ccccc1)C(=O)N[C@@H](CCC(=O)O)C(=O)N[C@@H](CCCNC(=N)N)C(=O)N1CCC[C@H]1C(=O)N[C@@H](CO)C(=O)NCC(=O)O)[C@@H](C)O [18N]	–	57.5 ±0.1	–
CC[C@H](C)[C@H](NC(=O)[C@H](CC(N)=O)NC(=O)[C@H](CC(N)=O)NC(=O)[C@H](Cc1ccccc1)NC(=O)[C@H](Cc1ccc(O)cc1)NC(=O)[C@H](Cc1ccc(O)cc1)NC(=O)[C@@H](NC(=O)[C@H](CCCNC(=N)N)NC(=O)CNC(=O)[C@H](CO)NC(=O)[C@H](CO)NC(=O)[C@H](CCCNC(=N)N)NC(=O)[C@H](CO)NC(=O)[C@H](CCSC)NC(=O)[C@H](CCCNC(=N)N)NC(=O)[C@H](CCCCN)NC(=O)[C@H](CCC(=O)O)NC(=O)[C@H](Cc1c[nH]c2ccccc12)NC(=O)CNC(=O)[C@@H]1CCCN1C(=O)[C@@H]1CCCN1C(=O)[C@H](CC(C)C)NC(=O)[C@@H](N)CCCCN)C(C)C)C(=O)N[C@H](C(=O)N[C@@H](CC(N)=O)C(=O)N[C@@H](C)C(=O)N[C@@H](CO)C(=O)N[C@@H](CCC(N)=O)C(=O)N[C@@H](Cc1ccccc1)C(=O)N[C@@H](CCC(=O)O)C(=O)N[C@@H](CCCNC(=N)N)C(=O)N1CCC[C@H]1C(=O)N[C@@H](CO)C(=O)NCC(=O)O)[C@@H](C)O [27N]	54.9 ±0.1	–	–
CC[C@H](C)[C@H](NC(=O)[C@H](Cc1c[nH]cn1)NC(=O)[C@H](CC(N)=O)NC(=O)[C@H](Cc1ccccc1)NC(=O)[C@H](Cc1ccc(O)cc1)NC(=O)[C@H](Cc1ccc(O)cc1)NC(=O)[C@@H](NC(=O)[C@H](CCCNC(=N)N)NC(=O)CNC(=O)[C@H](CO)NC(=O)[C@H](CO)NC(=O)[C@H](CCCNC(=N)N)NC(=O)[C@H](CCC(N)=O)NC(=O)[C@H](CCSC)NC(=O)[C@H](CCCNC(=N)N)NC(=O)[C@H](CCCCN)NC(=O)[C@H](CCC(=O)O)NC(=O)[C@H](Cc1c[nH]c2ccccc12)NC(=O)CNC(=O)[C@@H]1CCCN1C(=O)[C@@H]1CCCN1C(=O)[C@H](CC(C)C)NC(=O)[C@@H](N)CCCCN)C(C)C)C(=O)N[C@H](C(=O)N[C@@H](CC(N)=O)C(=O)N[C@@H](C)C(=O)N[C@@H](CO)C(=O)N[C@@H](CCC(N)=O)C(=O)N[C@@H](Cc1ccccc1)C(=O)N[C@@H](CCC(=O)O)C(=O)N[C@@H](CCCNC(=N)N)C(=O)N1CCC[C@H]1C(=O)N[C@@H](CO)C(=O)NCC(=O)O)[C@@H](C)O [16Q]	56.6 ±0.1	–	8.9 ±0.2
CC[C@H](C)[C@H](NC(=O)[C@H](Cc1c[nH]cn1)NC(=O)[C@H](CC(N)=O)NC(=O)[C@H](Cc1ccccc1)NC(=O)[C@H](Cc1ccc(O)cc1)NC(=O)[C@H](Cc1ccc(O)cc1)NC(=O)[C@@H](NC(=O)[C@H](CCCNC(=N)N)NC(=O)CNC(=O)[C@H](CO)NC(=O)[C@H](CO)NC(=O)[C@H](CCCNC(=N)N)NC(=O)[C@H](CO)NC(=O)[C@H](CCSC)NC(=O)[C@H](CCCNC(=N)N)NC(=O)[C@H](CCCCN)NC(=O)[C@H](CCC(=O)O)NC(=O)[C@H](Cc1c[nH]c2ccccc12)NC(=O)CNC(=O)[C@@H]1CCCN1C(=O)[C@@H]1CCCN1C(=O)[C@H](CC(C)C)NC(=O)[C@@H](N)CCCCN)C(C)C)C(=O)N[C@@H](CC(N)=O)C(=O)N[C@@H](CC(N)=O)C(=O)N[C@@H](C)C(=O)N[C@@H](CO)C(=O)N[C@@H](CCC(N)=O)C(=O)N[C@@H](Cc1ccccc1)C(=O)N[C@@H](CCC(=O)O)C(=O)N[C@@H](CCCNC(=N)N)C(=O)N1CCC[C@H]1C(=O)N[C@@H](CO)C(=O)NCC(=O)O [29N]	50.0 ±0.1	–	–
CC[C@H](C)[C@H](NC(=O)[C@H](Cc1c[nH]cn1)NC(=O)[C@H](CC(N)=O)NC(=O)[C@H](Cc1ccccc1)NC(=O)[C@H](Cc1ccc(O)cc1)NC(=O)[C@H](Cc1ccc(O)cc1)NC(=O)[C@@H](NC(=O)[C@H](CCCNC(=N)N)NC(=O)CNC(=O)[C@H](CO)NC(=O)[C@H](CO)NC(=O)[C@H](CCCNC(=N)N)NC(=O)[C@H](CO)NC(=O)[C@H](CCSC)NC(=O)[C@H](CCCNC(=N)N)NC(=O)[C@H](CCCCN)NC(=O)[C@H](CCC(=O)O)NC(=O)[C@H](Cc1c[nH]c2ccccc12)NC(=O)CNC(=O)[C@@H]1CCCN1C(=O)[C@@H]1CCCN1C(=O)[C@H](CC(C)C)NC(=O)[C@@H](N)CCCCN)C(C)C)C(=O)N[C@H](C(=O)N[C@@H](CC(N)=O)C(=O)N[C@@H](C)C(=O)N[C@@H](CC(N)=O)C(=O)N[C@@H](CCC(N)=O)C(=O)N[C@@H](Cc1ccccc1)C(=O)N[C@@H](CCC(=O)O)C(=O)N[C@@H](CCCNC(=N)N)C(=O)N1CCC[C@H]1C(=O)N[C@@H](CO)C(=O)NCC(=O)O)[C@@H](C)O [32N]	–	45.1 ±0.2	–
CC[C@H](C)[C@H](NC(=O)[C@H](Cc1c[nH]cn1)NC(=O)[C@H](CC(N)=O)NC(=O)[C@H](Cc1ccccc1)NC(=O)[C@H](Cc1ccc(O)cc1)NC(=O)[C@H](Cc1ccc(O)cc1)NC(=O)[C@@H](NC(=O)[C@H](CCCNC(=N)N)NC(=O)CNC(=O)[C@H](CO)NC(=O)[C@H](CO)NC(=O)[C@H](CCCNC(=N)N)NC(=O)[C@H](CC(N)=O)NC(=O)[C@H](CCSC)NC(=O)[C@H](CCCNC(=N)N)NC(=O)[C@H](CCCCN)NC(=O)[C@H](CCC(=O)O)NC(=O)[C@H](Cc1c[nH]c2ccccc12)NC(=O)CNC(=O)[C@@H]1CCCN1C(=O)[C@@H]1CCCN1C(=O)[C@H](CC(C)C)NC(=O)[C@@H](N)CCCCN)C(C)C)C(=O)N[C@H](C(=O)N[C@@H](CC(N)=O)C(=O)N[C@@H](C)C(=O)N[C@@H](CO)C(=O)N[C@@H](CCC(N)=O)C(=O)N[C@@H](Cc1ccccc1)C(=O)N[C@@H](CCC(=O)O)C(=O)N[C@@H](CCCNC(=N)N)C(=O)N1CCC[C@H]1C(=O)N[C@@H](CO)C(=O)NCC(=O)O)[C@@H](C)O [16N]	–	50.6 ±0.2	–
